Data from patent US6514949B1, “Method compositions for treating the inflammatory response” (University of Virginia Patent Foundation, priority 1994, dated 2003).

Legend:
Adult wistar rats = experiment: Rat model of inflammation (bacterial meningitis): CSF WBC pleocytosis and blood-brain barrier permeability; type: in vivo
Procedure: Effects of WRC-0470 and rolipram on the extravasation of white blood cells in a rat model of inflammation. Adult wistar rats (approximately 200 g) were anesthetized with intermuscular injections of ketamine and xylazine. Bacteria meningitis (BM) was introduced via intracistemal inoculation of either E. coli strain 026:B6LPS (200 ng), cytokines (IL-1 and TNFα, or LPS plus cytokines). The animals were then infused with rolipram and/or […] over the duration of the experiment using a Harvard pump. CSF (cerebrospinal fluid) and blood was then sampled at 4 h post-inoculation and alterations in BBBP (blood-brain barrier permeability) and WBC (white blood cell) counts were determined. CSF and WBC concentrations were determined with standard hemacytometer methods. For assessment of % BBBP, rats were given an intravenous injection of 5 μCi 125I-labeled bovine serum albumin concomitant with intracistemal inoculation. Equal samples of CSF and blood were read simultaneously in a gamma counter and after subtraction of background radioactivity, % BBBP was calculated by the following formula: % BBBP=(cpm CSF/cpm blood)×100. All statistical tests were performed using Instat biostatistical software to compare the post-inoculation samples of experimental rats with the control rats. The statistical tests used to generate p-values were Student's t-test and ANOVA.

adherent human monocytes = experiment: Production of TNFα by purified human adherent monocytes; type: cell-based
Procedure: Production of TNFα by purified human adherent monocytes. A monocyte rich monolayer (>95% monocytes) was prepared by incubating 1 ml of the mononuclear leukocyte fraction (5×10^5/ml) from a Ficoll-Hypaque separation in wells of a 24 well tissue culture plate (1 hr; 37° C.; 5% CO2). […] The samples were incubated for 4 hr (37° C.; 5% CO2) and the supernatants harvested. Any suspended cells were removed by centrifugation and the cell-free samples frozen (−70° C.). TNFα was assayed in the cell-free supernatants by an ELISA kit (Cistron Biotechnology, Pine Brook, N.J.).

TNFα-stimulated PMN = experiment: TNF-stimulated PMN adherence to a fibrinogen-coated surface; type: cell-based, human
Procedure: PMN adherence to fibrinogen was measured as follows as adapted from Hanlon, J. Leukocyte Biol., 50, 43 (1991). Twenty-four well flat-bottomed tissue culture plates were incubated (37° C.) overnight with 0.5 ml of fibrinogen (5 mg/ml) dissolved in 1.5% NaHCO3. The plates were emptied and each well washed 2× with 1 ml of normal saline. The wells were then filled with 1 ml of HBSS-0.1% human serum albumin containing PMN (1×10^6/ml) with and without rhTNFα (1 U/ml), adenosine deaminase (ADA) (1 U/ML), WRC-0474[SHA 211] (10 nM), CGS21680 (30 nM), adenosine (100 nM) and rolipram (100 nM). The plates were incubated for 90 minutes at 37° C. in 5% CO2. Following incubation the tissue culture wells were washed free of non-adherent cells with normal saline. The adherent monolayer of PMN was lysed with 0.1% triton-X, the amount of lactic dehydrogenase (LDH) released from the monolayer assayed (LDH kit, Sigma Co., St. Louis, Mo.), and compared to a standard curve relating the LDH content to PMN numbers.

[1] = test system: TNFα-stimulated adherent human neutrophils; experiment: TNFα-stimulated superoxide release of PMN adherent to fibrinogen coated surface; type: cell-based; details: for superoxide release of TNFα-stimulated adherent PMN: 300 nM combined with rolipram (100 nM), p<0.05, FIG. 5
Procedure: TNFα-stimulated superoxide release of PMN adherent to a matrix protein (fibrinogen) coated surface. Human PMN (1×10^6/ml) from Ficoll-Hypaque separation were incubated for 90 minutes in 1 ml of Hanks balanced salt solution containing 0.1% human serum albumin, cytochrome c (120 μM), and catalase (0.062 mg/ml) in the presence and absence of rhTNF (1 U/ml), WRC-0474[SHA 211] (10 nM) and rolipram (100 nM) in a tissue culture well which had been coated overnight with human fibrinogen. SOD (200 U/ml) was added to matched samples. The supernatants were iced and centrifuged (2000 g×10 minutes) to remove any remaining suspended cells, and the optical density of the supernatants were read at 550 nm against the matched SOD samples, and the nmoles of SOD-inhibitable superoxide released in 90 minutes were calculated.
Additional effects of adenosine A2A agonists on adherent human neutropbil oxidative activity. The bioactivity of test compounds WRC-0474[SHA 211], WRC-0470, WRC-0090 and WRC-0018 were evaluated according to the following method modified from Sullivan, G. W. et al., Int. J. Immunopharmacol, 17, 793-803 (1995). Neutrophils (1×10^6/ml from Ficoll-Hypaque separation were incubated for 90 minutes in 1 ml of Hanks balanced salt solution containing 0.1% human serum albumin, cytochrome c (120 μM) and catalase (0.062 mg/ml in the presence and absence of rhTNFα (1 U/ml), WRC-0474[SHA 211], WRC-0470, WRC-0090 and WRC-0018 (3-300 nM), and rolipram (100 nM) in a tissue culture well which had been coated overnight with human fibrinogen. The supernatants were iced and centrifuged (200 g×10 min) to remove any remaining suspended cells, and the optical densities of the supernatants were read at 550 nm against matched superoxide dismutase (SOD) (200 U/ml) samples. The nmoles of SOD=inhabitable superoxide released in 90 min were calculated.

[2] = test system: neutrophils in whole blood; experiment: PMN oxidative activity in whole blood; type: cell-based
Procedure: PMN oxidative activity in whole blood. The following methods were adapted from Rothe, G. A. et al., J. Immunol. Meth., 138, 133-135 (1991). Heparinized whole blood (0.8 ml) was incubated (37°; 30 min) with adenosine deaminase (ADA, 1 U/ml), catalase (14,000 U/ml), ±dihydrorhodamine 123, ±WRC-0470 (3-300 nM), ±rolipram (300 nM) and ±TNFα (10 U/ml). The primed blood samples were stimulated with fMLP (15 min), then iced, the red blood cells lysed with FACS lysing solution (Becton-Dickinson, San Jose, Calif.), washed and the leukocytes resuspended in phosphate-buffered saline (PBS). These samples containing mixed leukocytes were gated for neutrophils by forward and side scatter and the fluorescence of 10,000 neutrophils measured in the FL1 channel of a FACScan (Beckton-Dickinson) fluorescence-activated cell sorter.

[3] = test system: TNFα-stimulated adherent neutrophil; experiment: PMN degranulation (adherent cells), lysozyme release; type: cell-based, human; details: WRC-0470 300 nM with rolipram 300 nM; P=0.027
Procedure: PMN degranulation (adherent cells). The following methods were adapted from Sullivan, G. W. and G. L. Mandell, Infect. Inumun., 30, 272-280 (1980). […] The supernatant fluids with any suspended neutrophils were harvested following incubation, centrifuged (2000 ×g for 10 min) to remove any suspended cells and the cell-free supernatants frozen. Release of lysozyme, a component of neutrophil primary and secondary granules was assayed. Lysis of a suspension of Micrococcus lysodeikticus by the “cell-free supernatant” was measured by spectrophotometric analysis ([…]) to determine the amount of release of granule contents to the surrounding medium.

COc1ccc(C2CNC(=O)C2)cc1OC1CCCC1 (centres unmarked) [rolipram, 4-(3-cyclopentyloxy-4-methoxyphenyl)-2-pyrrolidone, reference compound]
alterations of BBBP (Adult wistar rats; 0.002 μg/kg/hr): no significant effect
inhibition of CSF pleocytosis (Adult wistar rats; 0.01 μg/kg/hr, p<0.05, FIG. 10): 99%
alterations of BBBP (Adult wistar rats; 0.01 or 0.005 μg/kg/hr, p<0.05): significant inhibition
WBC migrated into the sub-arachnoid space (CSF WBC) (Adult wistar rats; rolipram alone (0.001 μg/kg/hr), p<0.050 vs combination): 1,670±1,273 WBC/μl

Nc1nc(NCCc2ccc(O)cc2)nc2nc(-c3ccco3)nn12 [ZM241385, 4-(2-[7-amino-2-(2-furyl)[1,2,4]-triazolo[2,3a]-[1,3,5]trazinyl-amino]ethyl)-phenol, reference compound]
antagonism of the effect of WRC-0470 (300 nM) combined with rolipram (300 nM) on TNFα release from monocytes (adherent human monocytes; ZM241385 50 nM, p=0.020, FIG. 7B): significantly inhibited the effect of WRC-0470

Nc1ncnc2c1ncn2[C@@H]1O[C@H](CO)[C@@H](O)[C@H]1O [adenosine]
TNF-stimulated PMN adherence (TNFα-stimulated PMN; 100 nM, p=0.009 compared to TNF in the presence of ADA): 28 % adhered

Nc1nc(N/N=C/C2CCCCC2)nc2c1ncn2[C@@H]1O[C@H](CO)[C@@H](O)[C@H]1O [WRC-0470]
superoxide release of TNFα-stimulated adherent PMN [1]: synergistically decreased superoxide release
rank of activity among the four A2A agonists, adherent PMN oxidative activity ([1]; in the presence of rolipram): most active
endotoxin-stimulated adherent monocyte production of TNFα (adherent human monocytes; ±rolipram, P<0.050, FIGS. 7A and 7B): decreased
neutrophil oxidative activity in whole blood ([2]; 30-300 nM with rolipram 300 nM, fMLP or TNFα then fMLP): decreased neutrophil oxidative activity synergistically
oxidative activity of TNFα-primed fMLP-stimulated neutrophils in whole blood ([2]; FIG. 6): decreased oxidative activity
blood-brain barrier permeability (% BBBP) (Adult wistar rats; 1.2 μg/kg/hr, rebound effect): returned to control
blood-brain barrier permeability (% BBBP) (Adult wistar rats; 0.01-0.015 μg/kg/hr, p<0.05 as compared to control, FIG. 9): significant response
WBC migrated into the sub-arachnoid space (CSF WBC) (Adult wistar rats; WRC-0470 0.1 μg/kg/hr in combination with rolipram 0.001 μg/kg/hr, FIG. 11): 200±70 WBC/μl
WBC migrated into the sub-arachnoid space (CSF WBC) (Adult wistar rats; WRC-0470 alone (0.1 μg/kg/hr), p<0.050 vs combination): 600±308 WBCs/μl
CSF WBC pleocytosis (Adult wistar rats; infusion 0.005-1.2 μg/kg/hr, p<0.05 as compared to control, FIG. 8): inhibited pleocytosis
decrease of TNFα-stimulated adherent neutrophil degranulation [3]: 67%

CCNC(=O)[C@H]1O[C@@H](n2cnc3c(N)nc(NCCc4ccc(CCC(=O)O)cc4)nc32)[C@H](O)[C@@H]1O [CGS21680]
TNF-stimulated PMN adherence (TNFα-stimulated PMN; 30 nM, in the presence of ADA, TNF control 38%, p=0.004): 30 % adhered

Cc1ccc(CCOc2nc(N)c3ncn([C@@H]4O[C@H](CO)[C@@H](O)[C@H]4O)c3n2)cc1 [WRC-0090]
superoxide release of TNFα-stimulated adherent PMN [1]: synergistically decreased superoxide release

Nc1nc(OCCc2ccc3ccccc3c2)nc2c1ncn2[C@@H]1O[C@H](CO)[C@@H](O)[C@H]1O [WRC-0018]
superoxide release of TNFα-stimulated adherent PMN [1]: synergistically decreased superoxide release
